Assay results: patent publication US10814010B2, “FOXC2 inhibitor and methods of use thereof” (The Board of Regents of The University of Texas System, priority 2018, dated 2020)

Assays:
[1] = molecular target: T1, DNA binding domain (DBD) of FOXC2 (Homo sapiens, UniProt Q99958); assay: ELISA-like binding assay, immobilized DNA binding domain of FOXC2; conditions: biotinylated compound
T1 construct: His6 (N, cleaved yes); MBP (N, cleaved yes); made in house; host or cells: E. coli BL21(DE3)-RIPL
T1 sequence (Q99958 60-163): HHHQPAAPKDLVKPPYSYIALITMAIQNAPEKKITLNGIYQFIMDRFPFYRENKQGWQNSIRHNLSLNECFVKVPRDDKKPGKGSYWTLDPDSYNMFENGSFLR
Experimental: The binding affinity of MC-1-F2 to full-length FOXC2 was determined using an ELISA-like binding assay. In this assay, varying concentrations of biotinylated MC-1-F2 or biotinylated MC-C (control; FIG. 12) were incubated in the wells with immobilized recombinant full-length FOXC2 or the DNA binding domain (DBD) of FOXC2 (FIG. 2A). After washing off unbound ligand, the wells were incubated with streptavidin-conjugated Qdot655, followed by fluorescence measurement of the wells using a plate reader. […] This is important for the specificity of MC-1-F2 to FOXC2 as several forkhead transcription factors share a very similar DNA-binding domain.
Clear bottom, black wall, 96 well plate (Corning) was coated with 1 μg/mL of full length FOXC2 or DNA binding domain (DBD) of FOXC2 protein in sensitizing buffer (0.621 g NaHCO3, 0.275 g Na2CO3 in 100 mL of water pH=9.5) overnight at 4° C. Wells were washed 3 times with 200 μL of wash buffer (lx PBS with 0.05% Tween-20). Wells were blocked with blocking buffer (1% BSA in 1×PBS with 0.05% Tween-20) for 1 hour at room temperature. 50 μL of serial dilutions of biotinylated compound in blocking buffer were added to each well and incubated for 1 hour at room temperature. Followed was the addition of […] of 20 nM of strepavidin-Qdot655 in blocking buffer for 1 hour at room temperature. […] Fluorescence was measured using a plate reader (Ex. 495, Em. 655).

FOXC2 = molecular target: T2, FOXC2 (Homo sapiens, UniProt Q99958); assay: Western blot of FOXC2 protein level and nuclear localization in MDA-MB-231; type: cell-based; conditions: MDA-MB-231, 20 μM
T2 construct: endogenous in cells; host or cells: MDA-MB-231
T2 sequence (Q99958 1-501): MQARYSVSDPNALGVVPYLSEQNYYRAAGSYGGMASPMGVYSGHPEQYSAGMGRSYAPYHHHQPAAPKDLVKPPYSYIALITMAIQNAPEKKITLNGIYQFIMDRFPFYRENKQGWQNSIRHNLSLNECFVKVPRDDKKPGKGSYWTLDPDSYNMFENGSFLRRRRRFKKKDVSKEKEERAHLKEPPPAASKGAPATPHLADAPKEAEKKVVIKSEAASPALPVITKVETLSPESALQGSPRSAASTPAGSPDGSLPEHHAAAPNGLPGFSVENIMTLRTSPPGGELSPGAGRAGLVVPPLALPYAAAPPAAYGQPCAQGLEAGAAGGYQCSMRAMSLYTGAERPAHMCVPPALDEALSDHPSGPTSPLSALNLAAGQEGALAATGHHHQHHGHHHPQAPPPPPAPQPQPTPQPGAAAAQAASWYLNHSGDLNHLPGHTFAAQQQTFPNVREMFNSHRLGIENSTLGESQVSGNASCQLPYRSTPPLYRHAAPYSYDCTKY
Excerpt: As a transcription factor, FOXC2 needs to localize into the nucleus to promote the transcription of target genes. Therefore, a small molecule that blocks nuclear localization of FOXC2 is expected to inhibit EMT. […] Putative kinases that phosphorylate FOXC2 have been proposed (Werden et al., 2016; Ivanov et al., 2013; Golden & Cantley, 2014). It is possible that MC-1-F2 disrupts the protein-protein interaction between FOXC2 and its kinase, resulting in the decease of FOXC2 nuclear localization. Investigation into the exact mechanism by which MC-1-F2 inhibits FOXC2 phosphorylation and nuclear localization is underway.
50 μg of total protein per sample was incubated with 4× loading buffer at 100° C. for 5 min. Protein samples were then loaded into a polyacrylamide gel and subjected to SDS-PAGE. Resolved proteins were then transferred by a wet transfer method to a PVDF membrane at 100 V for 1 hour using a BioRad Mini Trans-Blot Electrophoresis Transfer Cell. Upon the completion of wet transfer, the membrane was then blocked with 5% (w/v) fat-free milk in 1× Tris-buffered saline/0.1% (v/v) Tween-20 (TBS-T) for at least 1 hour. Then incubated with the respective primary antibodies diluted in 5% BSA in 1×TBST at 4° C. overnight. The following day exposed to 1:1000 dilution of anti-mouse or anti-rabbit HRP-conjugated secondary antibodies in 5% (w/v) fat-free milk in 1×TBS-T for 1 hour at room temperature. The probed proteins were then detected for chemiluminescent signal using SuperSignal Chemiluminescent Substrate (PIERCE). Pierce antibodies: B-actin, and all other antibodies used are from cell signaling. MG132 treatment was added to cells (0.5 μM) for 1-hour incubation prior to compound treatment, no more than 24 hours total exceeded during MG132 incubation.

MDA-MB-231 cells = assay: Wound healing assay, MDA-MB-231; type: cell-based; conditions: MDA-MB-231, 20 μM, 24 hours
Experimental: Reversal of EMT mediated by MC-1-F2 was anticipated to lead to the inhibition of metastatic capability of cancer cells. […] A wound healing assay was carried out to examine the migratory capabilities of cells in closing a “wound” or gap over a period of 24 hours. […] Inhibition of migratory capabilities of cells only measures one aspect of EMT progression. EMT is marked also by increased invasiveness of cancer cells. Therefore, the invasive property of MDA-MB-231 cells treated with MC-1-F2 was examined (FIGS. 6B&C).
3×10^5 cells of MDA-MB-231 in 70 μL of DMEM media were seeded on an ibidi μ-dish (Ibidi) and incubated for 24 hours. The insert was removed carefully with tweezers, to create the “wound” and the dish rinsed with DPBS. Followed by the addition of DMEM media with applicable drug. Images were taken at various time points and monitoring of the migration of cells into the “gap” was recorded at several time points.

Kd [1]: > 100 µM
FOXC2 protein level (FOXC2; 24 hours, absence of MG132): decrease in FOXC2 protein level
Compound: N=C(N)NCCCCNc1nc(Nc2ccc(Oc3ccccc3)cc2)nc(N2CCN(c3nc(N)nc(Nc4ccc(N5CCOCC5)cc4)n3)CC2)n1 [MC-1-F2]
FOXC2 protein level in presence of MG132 (FOXC2; 24 hours, with 26S proteasome inhibitor MG132): prevented by incubating the cells with a 26S proteasome inhibitor, MG132
nuclear localization of FOXC2 (FOXC2; 48 hours, cytosolic and nuclear fractions): decrease in nuclear localization of FOXC2
migratory activity / wound closure (MDA-MB-231 cells): inhibition of the migratory activity
